Assay in all cases: NCI anticancer screen, dose series, 48 h
In assay [1] the test system is ACHN renal.
Assay [2] relates to CAKI-1 renal.
In assay [3] the test system is COLO 205 colon.
The subject of assay [4] is EKVX NSCLC.
Assay [5] deals with HL-60(TB) leukemia.
Assay [6] has as its system KM12 colon.
Assay [7] has as its system MALME-3M melanoma.
Assay [8] concerns NCI-H23 lung.
Assay [9] concerns NCI-H522 lung.
Assay [10] concerns OVCAR-5 ovarian.
For assay [11], the system named is RXF 393 renal.
In assay [12] the test system is SF-539 CNS.
Assay [13] deals with SN12C renal.
In assay [14] the test system is SNB-19 CNS.
Assay [15] relates to SR leukemia.
Assay [16] relates to SW-620 colon.
Assay [17] relates to TK-10 renal.
The test system of assay [18] is LXFL 529 NSCLC.
The test system of assay [19] is OVCAR-4 ovarian.
Assay [20] deals with UACC-62 melanoma.

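Protocol summary: plate cells (96-well), add compound at 5 concentrations, incubate 48 h, interpolate endpoints linearly. TGI: concentration producing complete growth inhibition.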

Turning to `O=c1cnn(C/C=C\CO)c(=O)[nH]1`, the TGI in assay [1], in assay [2], in assay [3], in assay [4], in assay [5] and in assay [6] was over 100 µM each time. Moreover, the TGI in [7], in assay [8], in assay [9], in [10], in assay [11] and in assay [12] was over 100 µM throughout. Further, the TGI in assay [13], in assay [14], in [15], in assay [16] and in assay [17] was over 100 µM in each case.
Take `COC(=O)C(=O)C(C(=O)Nc1cccc(C)c1C)C1Sc2ccccc2NC1=O` (stereo not given): the TGI in assay [1], in assay [2], in assay [3], in assay [4], in [5] and in assay [6] was over 25 µM each time. Also, the TGI is over 25 µM in [18]; 24 µM in assay [7]; over 25 µM in assay [8]; over 25 µM in assay [9]; over 25 µM in [19]; over 25 µM in assay [10]. For the same compound, the TGI in assay [11] was 23.8 µM; in assay [12], over 25 µM; in assay [13], over 25 µM; in [14] it was over 25 µM; in assay [15] it was over 25 µM; in assay [16], over 25 µM. In addition, the TGI in assay [17] and in [20] was over 25 µM in each case.
For the compound `Cn1cnc([N+](=O)[O-])c1Sc1nc2cc(Cl)c(F)cc2[nH]1`, the TGI in assay [1] was found to be 34.1 µM; in [2], 14.4 µM; in assay [3], 22 µM; in [4] it was 16.5 µM; in assay [6], 36.6 µM; in assay [18] it was 19.2 µM. The TGI in assay [7] was 27.5 µM; in [8], 31.3 µM; in [19], 21 µM; in [10], over 100 µM; in [11] it was 9.93 µM; in assay [12], 16.7 µM. Besides, the TGI is 29.7 µM in assay [13]; over 100 µM in assay [14]; 12.4 µM in [15]; 22.4 µM in assay [16]; 33 µM in assay [17]; 28.6 µM in assay [20].

For the origin of these results see PubChem BioAssay (NCI).
